{"source": "patent US11197885B2", "about": "“Collagen enhancing agent made from low acyl gellan gum, methods of making and methods of using the same” (The University of Toledo, priority 2015, dated 2021)", "key": {"[1]": {"system": "rat embryonic cortical neurons exposed to 25 μM 4-HNE", "assay": "neuritic atrophy caused by 4-HNE in cortical neurons", "type": "cell-based", "conditions": "pre-treatment 2 days (1 μM; ascorbate 100 μM), then 25 μM 4-HNE 1 day", "description": "Rat embryonic cortical neurons were treated with mock (FIG. 11C), 1 μM HA-GAGR (high acyl gellan gum), 1 μM dextran, 100 μM ascorbate, or 1 μM midi-GAGR (FIG. 13A) for 2 days and then with 25 μM 4-hydroxynonenal (4-HNE), a lipid peroxide, for 1 day. After fixation, neurons were immunostained with anti-synaptophysin antibody (green) and rhodamine-phalloidin (actin: red). Scholl ring analysis was performed."}, "[2]": {"system": "phosphorylated CREB in differentiated PC12 cells", "assay": "nuclear p-CREB immunostaining in differentiated PC12 cells", "type": "cell-based", "conditions": "1 μM, 24 h", "description": "(§1) Differentiated PC12 cells and mouse embryonic cortical neurons (E17, DIV14) were treated with mock, dextran, alginate, HA-GAGR, or midi-GAGR (1 μM) for 24 h and fixed in 3.7% paraformaldehyde. The fixed cells and neurons were immunostained with antibodies against α-tubulin and phosopho-CREB (p-CREB) along with DAPI (nucleus)."}, "[3]": {"target": "FGFR1 (Mus musculus, UniProt P16092)", "sequence (P16092 22-822)": "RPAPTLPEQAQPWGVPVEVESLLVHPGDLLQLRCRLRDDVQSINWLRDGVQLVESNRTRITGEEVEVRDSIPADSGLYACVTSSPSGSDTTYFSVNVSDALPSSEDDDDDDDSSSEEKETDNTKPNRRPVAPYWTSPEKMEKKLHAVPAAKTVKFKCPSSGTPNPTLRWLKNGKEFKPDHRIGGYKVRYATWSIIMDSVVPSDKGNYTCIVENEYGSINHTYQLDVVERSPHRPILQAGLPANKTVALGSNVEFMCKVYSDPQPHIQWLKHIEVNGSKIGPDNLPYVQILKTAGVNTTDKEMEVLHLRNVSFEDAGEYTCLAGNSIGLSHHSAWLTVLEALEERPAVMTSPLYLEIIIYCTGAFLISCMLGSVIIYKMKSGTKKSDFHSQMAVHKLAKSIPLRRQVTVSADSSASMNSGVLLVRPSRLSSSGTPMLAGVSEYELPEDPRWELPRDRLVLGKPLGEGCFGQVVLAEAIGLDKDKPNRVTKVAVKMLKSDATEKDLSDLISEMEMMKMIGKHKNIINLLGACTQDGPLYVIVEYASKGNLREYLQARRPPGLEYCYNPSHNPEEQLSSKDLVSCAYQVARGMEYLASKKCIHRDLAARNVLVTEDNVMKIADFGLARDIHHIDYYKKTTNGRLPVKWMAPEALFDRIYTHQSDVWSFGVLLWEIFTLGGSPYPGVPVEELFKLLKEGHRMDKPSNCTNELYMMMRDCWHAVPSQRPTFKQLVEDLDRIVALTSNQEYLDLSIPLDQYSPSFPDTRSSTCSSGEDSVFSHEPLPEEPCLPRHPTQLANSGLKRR", "assay": "affinity chromatography with midi-GAGR-conjugated sepharose beads, FGFR1 immunoblotting", "type": "binding", "parameters": "Whole mouse brains were homogenized for cytosol extraction in PMEE buffer containing 1% Igepal CA-630; from tissue; host or cells: mouse brain (cerebral cortex / whole brain) detergent extract", "conditions": "0.5% Igepal CA-630 PMEE buffer", "description": "To examine whether midi-GAGR interacts with synaptosomal FGFR1 or not, an affinity chromatography using midi-GAGR-conjugated sepharose beads was performed. Either midi-GAGR or dextran were conjugated to epoxy-activated sepharose 6B that is a pre-activated medium that can be conjugated to the hydroxyl groups of carbohydrates. Briefly, 200 μL of 7.4 mM midi-GAGR or 5 kD dextran in H2O was mixed with 200 μL of epoxy-activated sepharose beads in a microtube and incubated on a rotator (16 h, 37° C.). The mixture was spun down at 1,000×g (10 min) to separate bead-bound polysaccharides from unbound. Unoccupied active sites on beads were blocked by incubation (4 h, 45° C.) in 1 M ethanolamine (pH 8). Then, beads were washed with three cycles of alternating pH solutions—0.1 M acetate buffer (pH 4) and 0.1 M Tris-HCl buffer (pH 8), both containing 0.5 M NaCl. The conjugation of polysaccharides to beads was confirmed by phenol-sulfuric acid colorimetry. Cerebral cortices were dissected from four female mice (BALB/C, 8 wks old) and homogenized with a hand grinder in 1 mL of PMEE homogenization buffer plus 1% Igepal CA-630 and protease inhibitors (PIs). The homogenate was centrifuged at 1,000×g (10 min) to remove nuclei and undisrupted cells. The supernatant was subjected to 5-6 strokes through 27G needle. Post-nuclear supernatant was centrifuged at 1,000×g (15 min). […]"}, "[4]": {"system": "primary mouse cortical neurons (E17, DIV4)", "assay": "neurite outgrowth in primary mouse cortical neurons", "type": "cell-based", "conditions": "2 days; midi-GAGR, dextran, alginate 1 μM; LA-GAGR 0.1 μM; HA-GAGR 0.01 μM", "description": "To analyze the effect of polysaccharides on neurite outgrowth, primary mouse cortical neurons were treated with vehicle (H2O) or 1 μM of dextran, alginate, or midi-GAGR, 0.01 μM of HA-GAGR, or 0.1 μM of LA-GAGR for 2 days prior to immunocytochemistry using anti-α-tubulin antibody and secondary Alexa488nm antibody. An etched grid coverslip containing 200 numbered boxes was used to select neurons objectively for image acquisition and analysis. A total of 24 boxes were randomly selected per treatment group. All the neurons having total neurite length longer than 4 times of the diameter of neuron cell body were chosen for image analysis. The total length of the neurites of each neuron was measured using Metamorph and used to calculate average total neurite length. To examine the effect of polysaccharides on the phosphorylation (activation) of nuclear CREB, neurons were stained with anti-pCREB antibody (Abcam & Santa Cruz biotechnologies, 2nd antibody with Alexa568nm), anti-α-tubulin antibody (Sigma, 2nd antibody with Alexa488nm), and DAPI (Sigma) after two-day incubation with vehicle (H2O) or 1 μM of dextran, alginate, or midi-GAGR, 0.01 μM of HA-GAGR, or 0.1 μM of LA-GAGR. […] The images of neurons on coverslips were taken by confocal microscopy at the same gain (850), offset (−0.01), and exposure time (2 sec). The intensity of the staining of nuclear pCREB was measured using Metamorph and used to calculate average intensity. In addition, the phosphorylation of CREB in the cytosols of mouse cortical neurons treated with polysaccharides were detected by immunoblotting. Primary mouse neurons were dissected from 16 mouse embryos (E17) and plated in the wells of 6-well plates (1×10^6 cells/well), differentiated for 6 days, and treated with polysaccharides for 48 h. […] The protein bands on blots recognized by anti-pCREB (Santa Cruz Biotechnologies) and anti-CREB antibodies were detected on Amersham Hyperfilm™ ECL films (GE Healthcare Life Science) using SuperSignal® West Pico Chemiluminescent Substrate (Thermo Scientific)."}, "[5]": {"system": "phosphorylated CREB in mouse embryonic cortical neurons", "assay": "nuclear p-CREB immunostaining in embryonic cortical neurons (Example 2)", "type": "cell-based", "conditions": "1 μM, 24 h", "description": "as §1"}}, "data": [{"substance": "dextran", "values": [{"measurement": "neurites in the presence of 4-HNE (neuritic atrophy)", "setting": "[1]", "result": "lost neuritis"}, {"measurement": "increase in levels of nuclear p-CREB", "setting": "[2]", "result": "not significantly increased"}, {"measurement": "FGFR1 pulled down from brain extract by polysaccharide-conjugated beads", "setting": "[3]", "result": "not"}, {"measurement": "fold change in average total neurite length vs vehicle", "setting": "[4]", "result": "did not enhance neuritogenesis"}, {"measurement": "increase in levels of nuclear p-CREB", "setting": "[5]", "result": "not significantly increased"}]}]}
